Assay results taken from patent US7332480B2, “Compositions for the regulation of cytokine activity” (Yeda Research and Development Co. Ltd., priority 1992, dated 2008).

Tests used:
[1] = test system: mortality after irradiation; assay: Radioprotective effects in gamma-irradiated mice; assay type: in vivo, BALB/c mice; details: 750 rads, three administrations
Method: Groups of female BALB/c mice, 8 weeks old, 5-10 mice per group, were injected subcutaneously with either saline (0.1 ml, control), H-9392 (30 ng/mouse), or glucosamine (10,000 ng/mouse) 1 day before irradiation, and weekly thereafter until termination of the experiment on day 30. All the mice were irradiated to a dose of 700 rads using a ^60Co gamma radiation source.
The mortality within the different groups of mice was then scored over a 30 day period. […] The group of mice which had been injected with glucosamine also fared better than the control group, showing a 20% mortality rate in the same period.
In a separate experiment, groups of BALB/c mice (5 mice to a group) were likewise exposed to 750 rads of gamma-rays, except that these groups of mice were treated with test substances (saline at 0.1 ml per mouse; H-9392 at 0.3, 3, 30 and 300 ng/mouse; and glucosamine at 1, 10 and 100 μg/mouse) on the day before irradiation, on the sixth day after irradiation, and once again on the thirteenth day after irradiation only. All treatment ceased after the third and last administration.

skin graft rejection = assay: Skin allograft rejection in mice; assay type: in vivo, BALB/c mice; details: 300 ng/mouse s.c. one day before grafting and weekly thereafter
Method: The effect of H-9392 was also tested in skin graft rejection experiments in mice. In particular, skin grafts from C57BL/6 donor mice (H-2^b) were applied to recipient BALB/c mice (H-2^d) according to the method of Baharav, E. et al. J. Immunol. Methods (1986) 90:143-144. The number of days to rejection was measured by the sloughing of the graft. The number of days to rejection was determined for a control group (injected with saline only, 0.1 ml), and test groups that received 3 ng or 300 ng of H-9392 by subcutaneous injection one day before grafting and weekly thereafter. The results, which are graphically represented in FIGS. 40 and 40A, reveal that the 3 ng/mouse dose delayed the level of skin graft rejection at 50% by 5 days!

IDDM of NOD mice = assay: Insulin dependent diabetes mellitus (IDDM) of NOD mice; assay type: in vivo; details: H-9392 30 ng, glucosamine 10,000 ng; all the control mice had died (FIG. 41A)
[2] = test system: experimental allergic asthma; assay: Experimental allergic bronchial asthma in rats; assay type: in vivo, Brown Norway rats; details: 30 ng s.c. on day 30, challenge on day 35; saline animals Grade 3 or 4
Method: Experimental allergic bronchial asthma is an immediate type hypersensitivity reaction in rats which have been immunized and then rechallenged by inhalation of the priming antigen in a aerosolized solution. (Edelman, et al., Am. Rev. Resp. Dis. (1988) 137:1033-37). The etiology and pathophysiology of this experimental disease closely parallel the naturally occurring human counterpart. […] V.), on day zero. Subsequent challenges consisted of a 5 minute period of inhalation of OVA (1 mg/ml solution) aerosolized in a Devilbiss Nebulizer operated at an airflow of 6 L/min. Respiratory Distress (RD) responses were scored as Grade 0, no signs of distress; Grade 1, tachypnea; Grade 2, moderate labored breathing; Grade 3 severe labored breathing with mouth open; Grade 4, loss of consciousness and muscular tone. Sixteen days following primary immunization all animals were exposed to an initial aerosolized challenge to establish the positive control. The animals were coded so that the observer was ignorant of the subject animal's history. […] On day thirty, the animals were divided into 2 groups and given either saline (control Group A) or 30 ng of substance H-9392, s.c., (Group B) and challenged on day 35 as above.

[3] = test system: secretion of active TNF-α by activated human CD4+ T cells; assay: Bioassay of TNF-α activity using human CD4+ T cells derived from PBLs (human PBL bioassay); assay type: cell-based; details: Table XXIII; conc range of 1 μg/ml-0.01 pg/ml; inconsistent = same result not obtained for all three bioassays
Excerpt: Non adherent cells were eluted and washed.
Nophar, Y. et al. J. Immunol. (1988) 140 (10):3456-3460.

adjuvant arthritis = assay: Adjuvant arthritis (AA) in rats; assay type: in vivo, Lewis rats

For `O=C(O)C1=C[C@H](O)[C@@H](OS(=O)(=O)O)[C@H](O[C@H]2[C@H](O)[C@@H](NS(=O)(=O)O)C(O)O[C@@H]2CO)O1` (stereo partly drawn) [H-9392, 2-O-Sulfate-4-deoxy-4-en-iduronic acid-(α-1,4)-2-deoxy-2-N-sulfateglucosamine], the “mice died by the thirtieth day after irradiation” value ([1]; 30 ng/mouse, 5 mice to a group) was “one”, the “activity in suppressing mortality after irradiation” value ([1]; 300 ng H-9392, 1 μg glucosamine) was “moderate activity” and the “difference at 50% rejection relative to control” value (skin graft rejection) was “failed to produce a significant difference”. The “mice died by age 5 months” value (IDDM of NOD mice) was “none”, the “respiratory distress after secondary challenge” value [2] was “mere tachypnea” and the “Bioassay of TNF Activity” value [3] was “Inconsistent”. For the same compound, the “course of AA after treatment was ended” value (adjuvant arthritis; treatment from day 12, dexamethasone phosphate daily or weekly, disaccharide weekly) was “continued to exhibit improved AA scores”, the “effect on severity of AA” value (adjuvant arthritis; weekly or daily, beginning at day 0 or at day 12 (FIGS. 38D, 38E)) was “positive suppression of the severity of AA in all cases” and the “severity of the AA score at 30 days post-induction” value (adjuvant arthritis; weekly s.c. from day 12, dexamethasone phosphate 100 μg or disaccharide 120 ng per rat (FIG. 38G)) was “almost complete suppression”.
